The values that follow come from article PMC5526998, “Structural analysis of the regulatory mechanism of MarR protein Rv2887 in M. tuberculosis” (Scientific Reports, 2017).

What is called Kd is the equilibrium constant for the complex coming apart. The low end stands for higher affinity, the high end for lower affinity.

The test deals with Rv2887 (Mycobacterium tuberculosis, UniProt P9WME9). The test can be described thus: biochemical.
Sequence of Rv2887 (P9WME9 whole entry): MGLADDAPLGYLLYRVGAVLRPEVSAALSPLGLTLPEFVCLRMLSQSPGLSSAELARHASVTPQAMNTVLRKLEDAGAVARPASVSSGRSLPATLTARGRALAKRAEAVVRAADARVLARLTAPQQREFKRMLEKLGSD

`Nc1ccc(C(=O)O)c(O)c1` [PAS] had an equilibrium dissociation constant (Kd) of 183 µM.
`Cc1ccc(C)c(OCCCC(C)(C)C(=O)O)c1` [gemfibrozil] gave a Kd of 7.94 µM.
